One assay relates to ARPE-19 cells and hpRPE. Description: Apoptosis by Hoechst staining in RPE cells under UOS. The assay is classed as cell-based, human. Particulars: for apoptosis by UOS in the presence of the Wnt ligand: RPE cells under UOS with recombinant Wnt5a; for cell death by UOS on addition of Wnt5a: ARPE-19 cells and hpRPE under UOS, Wnt5a 50 ng/ml. The protocol:
ARPE-19 cells, can be plated and grown in DMEM/F-12 containing 10% FBS and 1× penicillin/streptomycin at 37° C., 5% CO2, 99% relative humidity for 24 h. […] 15-LOX-1 deficient cells can be maintained in the same medium as ARPE-19 with the addition of 500 μg/mL Geneticin (Life Technologies Corporation, Carlsbad, Calif.). Transfection can be performed in all cases using Lipofectamine 2000 (Life Technologies Corporation, Carlsbad, Calif.) following the manufacturer's recommendations. […] Experiments with transfection efficiency that yielded less than 80% can be discarded. For siRNA, we used 6 μl of Lipofectamine 2000 per 50 pmol of siRNA per mL of incubation medium, and, for plasmids, we used 6 μl of Lipofectamine 2000 per 2 μg of plasmid per mL of incubation medium. Cells can be incubated for 5 hours at 37° C., 5% CO2 and 99% relative humidity. […] When siRNA/plasmid co-transfection is required, siRNA and plasmid-carrying transfection mixes can be prepared separately and added one after the other in the same well. Oxidative stress treatments can be performed using 600 (ARPE-19) or 1600 (hRPE) μM H2O2, along with 10 ng/mL TNFα, for the required time indicated in each experiment. The treatment we used employed the low serum (0.5% serum) without hFGF. Treatment to induce uncompensated oxidative stress (UOS) can be performed after 8 hours of low-serum medium incubation unless specifically noted. Wnt5a, Wnt3a or NPD1 can be added immediately before induction of UOS. In the secretion experiments, Pitstop 2 can be added to the medium 2 hours before harvesting.
(§1) Immunostaining can be performed in 8-well slide chambers and the Hoechst staining in 24-well plates. […] Briefly, cells can be fixed using 4% paraformaldehyde in PBS 1× for 20 min at room temperature or overnight at 4° C. After three washes with PBS, cells can be permeabilized using 0.1% Triton™ X-100 for five minutes and blocked using 10% normal serum and 1% BSA for one hour. […] Hoechst staining can be performed using same protocol of fixation. In one embodiment, permeabilization is done using methanol for 20 min at room temperature. […] Dying cells can be identified by size (0 to 50 pixels), intensity threshold, and circularity. The ratio of hyperpyknotic cells over the total can be calculated for nine randomly chosen fields per sample obtained from three independent wells per experiment. Each experiment can be repeated at least three times to confirm the findings.
ARPE-19 cells, were plated and grown in DMEM/F-12 containing 10% FBS and 1× penicillin/streptomycin at 37° C., 5% CO2, 99% relative humidity for 24 h. […] 15-LOX-1 deficient cells were maintained in the same medium as ARPE-19 with the addition of 500 μg/mL Geneticin (Life Technologies Corporation). Transfection was performed in all cases using Lipofectamine 2000 (Life Technologies Corporation) following the manufacturer's recommendations. […] Experiments with transfection efficiency that yielded less than 80% were discarded. For siRNA, we used 6 μl of Lipofectamine 2000 per 50 pmol of siRNA per mL of incubation medium, and, for plasmids, we used 6 μl of Lipofectamine 2000 per 2 μg of plasmid per mL of incubation medium. Cells were incubated for 5 hours at 37° C., 5% CO2 and 99% relative humidity. […] When siRNA/plasmid co-transfection was required, siRNA and plasmid-carrying transfection mixes were prepared separately and added one after the other in the same well. […] The treatment we used employed the low serum (0.5% serum) without hFGF. Treatment to induce uncompensated oxidative stress (UOS) was performed after 8 hours of low-serum medium incubation unless specifically noted. Wnt5a, Wnt3a or NPD1 was added immediately before induction of UOS.

Another assay relates to Wnt5a/FZD5. Description: Immunocytochemistry of Wnt5a/FZD5 colocalization and vesicles in hpRPE cells. Particulars: for size of FZD5/Wnt5a vesicles: Wnt5a added; for size of FZD5/Wnt5a vesicles / vesicle load (mean intensity per vesicle) / intensity and number of Wnt5a-positive vesicles / number of FZD5-positive vesicles: IMARIS; for vesicle load (mean intensity per vesicle): external Wnt5a added; for number of Wnt5a/FZD5 colocalized vesicles per field: UOS 1600 μM H2O2, 2 hours, +/− 50 ng/ml Wnt5a, no Pitstop2. It counts as cell-based, human. The protocol:
To ascertain localization and interaction between FZD5 and Wnt5a we incubated hpRPE undergoing UOS with Wnt5a+/−NPD1 or other lipid mediators.
as §1
In an embodiment involving early stages of apoptosis, the total number of cells per field is assessed and counted to ensure unbiased observations. […] Settings can be adjusted in the conditions that show higher intensity and can be used throughout the remaining samples. In an embodiment, Pearson's colocalization coefficient (PCC) is obtained using FV1200 analysis software for every field in each experiment, and the mean and SEM are depicted in FIGS. 7-11.
Immunostaining was performed in 8-well slide chambers and the Hoechst staining in 24 well plates. […] Briefly, cells were fixed using 4% paraformaldehyde in PBS 1× for 20 min at room temperature or overnight at 4° C. After three washes with PBS, cells were permeabilized using 0.1% Triton™ X-100 for five minutes and blocked using 10% normal serum and 1% BSA for one hour. […] Hoechst staining was performed using same protocol of fixation, but permeabilization was done using methanol for 20 min at room temperature. […] Dying cells were identified by size (0 to 50 pixels), intensity threshold and circularity. The ratio of hyperpyknotic cells over the total was calculated for nine randomly chosen fields per sample obtained from three independent wells per experiment. Each experiment was repeated at least three times to confirm the findings. In the experiments involving early stages of apoptosis, we assessed the total number of cells per field and counted them to ensure unbiased observations. […] Pearson's colocalization coefficient (PCC) was obtained using FV1200 analysis software for every field in each experiment, and the mean and SEM are depicted in Figures S1-S5. […] IMARIS software analysis was performed building a colocalization channel using the Costes thresholding, and the colocalized elements were analyzed using the spots function using the settings different spots sites, background subtraction and local contrast. The output obtained consisted on a collection of sizes (one per element in each picture) or the mean of the intensity in each spot.

“Also recorded” adds a separate entry of the source. * marks the point of attachment. Boc = CC(C)(C)OC(=O)*

Take “t-Boc-NH-Met-Asp-Gly-Cys-Glu-Leu-CO2H (Boc-MDGCEL-OH) [Box5]”: in the assay on ARPE-19 cells and hpRPE (Hoechst staining), the “apoptosis by UOS in the presence of the Wnt ligand” value was “blocked apoptosis; also recorded: hindered apoptosis”. Further, the “apoptosis in cells only exposed to UOS” value in the assay on ARPE-19 cells and hpRPE (no Wnt5a added, Hoechst staining) is “decreased apoptosis; also recorded: prevented cell death”. In addition, in the assay on Wnt5a/FZD5 (hpRPE under UOS), the “size of FZD5/Wnt5a vesicles” value is listed as “Neither NPD1 nor Box5 affected the magnitude of the Wnt5a effect”; the “vesicle load (mean intensity per vesicle)” value is “did not affected vesicle loads that showed FZD5/clathrin or Wnt5a/clathrin signal”; the “intensity and number of Wnt5a-positive vesicles” value is “did not modify the increase in intensity and number induced by UOS”; the “number of FZD5-positive vesicles” value is “decrease the number of FZD5-positive vesicles”. Besides, the “number of Wnt5a/FZD5 colocalized vesicles per field” value with Wnt5a/FZD5 (hpRPE) is listed as “decreased Wnt5a induction”.

Regarding `CC/C=C\C[C@H](O)\C=C/C=C/C=C/[C@H](O)C/C=C\C/C=C\CCC(=O)O` [NPD1, 10R,17S-dihydroxy-docosa-4Z,7Z,11E,13E,15Z,19Z-hexaenoic acid], the “UOS-dependent NFkB activation and apoptosis (FIG. 18B legend)” value in the assay on ARPE-19 cells and hpRPE is “counteracted these effects”. Further, the “apoptosis by UOS in the presence of the Wnt ligand” value in the assay on ARPE-19 cells and hpRPE (Hoechst staining) is “blocked apoptosis; also recorded: hindered apoptosis”. In the assay with Wnt5a/FZD5 (hpRPE under UOS), the “size of FZD5/Wnt5a vesicles” value is given as “Neither NPD1 nor Box5 affected the magnitude of the Wnt5a effect”; the “vesicle load (mean intensity per vesicle)” value was “higher Wnt5a/FZD5 and FZD5/Clathrin vesicle intensity when Wnt5a was added”; the “intensity and number of Wnt5a-positive vesicles” value is reported as “difference in mean intensity distribution”; the “number of FZD5-positive vesicles” value is on record as “decrease the number of FZD5-positive vesicles”. In addition, the “mode of Wnt5a and FZD5 signal intensity” value in the assay on Wnt5a/FZD5 (hpRPE under UOS, absence of rWnt5a) is recorded as “restore both modes to control levels”. Besides, the “number of Wnt5a/FZD5 colocalized vesicles per field” value with Wnt5a/FZD5 (hpRPE) is “brought down the number of vesicles per field; also recorded: had the same effect; also recorded: decreased the amount of vesicles per field”. The “quantity of large only-Wnt5a positive spots” value in the assay on Wnt5a/FZD5 (hpRPE, absence of Wnt5a) is listed as “increased”.

B1: Wnt5a: Recombinant Human/Mouse Wnt-5a Protein, CHO-derived (Gln38-Lys380), R&D systems 645-WN (protein)
chain: QVVIEANSWWSLGMNNPVQMSEVYIIGAQPLCSQLAGLSQGQKKLCHLYQDHMQYIGEGAKTGIKECQYQFRHRRWNCSTVDNTSVFGRVMQIGSRETAFTYAVSAAGVVNAMSRACREGELSTCGCSRAARPKDLPRDWLWGGCGDNIDYGYRFAKEFVDARERERIHAKGSYESARILMNLHNNEAGRRTVYNLADVACKCHGVSGSCSLKTCWLQLADFRKVGDALKEKYDSAAAMRLNSRGKLVQVNSRFNSPTTQDLVYIDPSPDYCVRNESTGSLGTQGRLCNKTSEGMDGCELMCCGRGYDQFKTVQTERCHCKFHWCCYVKCKKCTEIVDQFVCK
In the case of B1, the “cell death by UOS on addition of Wnt5a” value in the assay with ARPE-19 cells and hpRPE is reported as “enhanced cell death triggered by H2O2; also recorded: enhances the percentage of cell death induced by UOS”; in the assay with ARPE-19 cells and hpRPE (listed as Recombinant Wnt5a) it was “potentiated cell death by UOS”. Also, in the assay on ARPE-19 cells and hpRPE (resting cells, no UOS), the “effect of Wnt5a alone on RPE cells (apoptosis)” value is listed as “no effect”. For the same molecule, the “number of Wnt5a/FZD5 colocalized vesicles per field” value in the assay on Wnt5a/FZD5 (hpRPE) is on record as “increased the number of vesicles that co-localize with FZD5”.

These data come from patent US20220119446A1, “BIOMARKERS AND TREATMENT OF NEURONAL INJURY AND NEURODEGENERATION” (Board of Supervisons of Louisiana State University and …, priority 2018, published 2022).
